Data: PMC12679602 (RSC Advances, 2025)
Entries after “also recorded” stand apart in the source; their conditions may differ.

Columns and labels:
[1] = tested on: SARS-CoV-2 Delta variant (B.1.617.2); assay: Virucidal assay against SARS-CoV-2; format: cell-based; conditions: for virucidal activity against SARS-CoV-2: in words
[2] = tested on: SARS-CoV-2 Delta variant (B.1.617.2); format: cell-based

Structure (SMILES)	virucidal activity against SARS-CoV-2 [1]	antiviral activity toward SARS-CoV-2 [2]	other results
C[C@H](CCC(=O)[O-])[C@H]1CC[C@H]2[C@@H]3CC[C@@H]4C[C@H](O)CC[C@]4(C)[C@H]3CC[C@]12C.C[N+](C)(C)CCO [[LCA][Z] (4)]			virucidal activity, times lower than the free acid LCA (1) ([1]; ratio of EC50 values): 3.27 times
C[C@H](CCC(=O)O)[C@H]1CC[C@H]2[C@@H]3[C@H](O)C[C@@H]4C[C@H](O)CC[C@]4(C)[C@H]3CC[C@]12C [CDCA (13), chenodeoxycholic acid]	did not exhibit antiviral or virucidal activity	did not exhibit antiviral activity; also recorded: did not exhibit antiviral or virucidal activity	virucidal activity against SARS-CoV-2 [1]; 13: did not show activity
C[C@H](CCC(=O)O)[C@H]1CC[C@H]2[C@@H]3CC[C@@H]4C[C@H](O)CC[C@]4(C)[C@H]3C[C@H](O)[C@]12C [DCA (5), deoxycholic acid]	did not exhibit antiviral or virucidal activity	did not exhibit antiviral activity; also recorded: did not exhibit antiviral or virucidal activity	virucidal activity against SARS-CoV-2 ([1]; listed as DCA, 5): did not show activity
C[C@H](CCC(=O)O)[C@H]1CC[C@H]2[C@@H]3[C@@H](O)C[C@@H]4C[C@H](O)CC[C@]4(C)[C@H]3CC[C@]12C [UDCA (9), ursodeoxycholic acid]	did not exhibit antiviral or virucidal activity	did not exhibit antiviral activity; also recorded: did not exhibit antiviral or virucidal activity	virucidal activity against SARS-CoV-2 [1]; 9: did not show activity
C[C@H](CCC(=O)O)[C@H]1CC[C@H]2[C@@H]3CC[C@@H]4C[C@H](O)CC[C@]4(C)[C@H]3CC[C@]12C [LCA (1), lithocholic acid]		did not exhibit antiviral activity	SI (selectivity index) ([1]; SI = CC50/EC50, virucidal assay): >5.16
